Assays:
[1] = system: MTX-naïve adult patients with active, early RA (<3 years); conditions: human, in vivo
[2] = system: patients with active rheumatoid arthritis; assay: Study A: tender and swollen joint count (TJC28/SJC28); type: in vivo, human; conditions: for Change in SJC, mean change from baseline / Change in TJC, mean change from baseline / SJC = 0 / TJC = 0: 12 weeks
Protocol: Swollen and tender joints are the most characteristic features of RA, as disease severity is directly related to the number of swollen and tender joints. Counting swollen and tender joints is a key component of the clinical assessment of RA. Tender joint count (TJC) is an assessment of 28 or more joints where several different aspects of tenderness are assessed by pressure and joint manipulation on physical examination. Swollen joint count (SJC): an assessment of 28 or more joints where joints are classified as either swollen or not swollen. For TJC and SJC scoring see Fuchs and Pincus, Arthritis Rheum 37:470-475, 1994; Arthritis Rheum 37:463-464, 1994).
The study design included a 12 week open label treatment period followed by a continuation period examining safety and efficacy. […] The main inclusion criteria for the study were the following: males and females ≧18 years; rheumatoid arthritis (RA; defined by ACR criteria) for ≧3 months; unsatisfactory response (or intolerance) to at least one prior DMARD; and patients with active RA (DAS28≧3.2). Baseline demographics and disease severity is shown below in Table 1:
Efficacy of adalimumab treatment was determined by examining signs and symptoms of the patients. Various assays were used to determine efficacy, including ACR response, EULAR response, TJC and SJC count, and DAS28.
The objective of this study was to evaluate the impact of prior biologic therapies, in particular TNF-antagonists etanercept (ETA) and infliximab (INF), on key efficacy parameters of adalimumab therapy in patients with long-standing RA in clinical practice. To evaluate the impact of prior biological therapies, patients with moderate to severe RA enrolled at 450 sites in 11 European countries plus Australia (Study A). Patients with moderate to severe RA and an inadequate response to prior DMARD therapies were enrolled in a 12-week open-label study with an optional extension phase. […] Patients with previous biologic treatment must have received the last administration at least 8 weeks before enrollment Routine safety and efficacy data were collected at weeks 2, 6, and 12, and every 8 weeks in the extension phase. Efficacy parameters included ACR20, ACR50, ACR70, EULAR Response, HAQ, tender and swollen joint count (TJC28/SJC28), and DAS28. […] For this interim analysis, efficacy outcomes were evaluated after 12 weeks of therapy per the number and type of prior biologics used: None, any (ETA, INF, anakinra), ETA only, INF only, or ETA and INF but not anakinra.
Patients with long-standing, moderate to severe RA were enrolled in Study A at 450 sites in 12 different countries. The study design for Study A is outlined in FIG. 21. […] Previous treatment with other biologics was allowed up to 8 weeks before enrollment. Patients met the following inclusion criteria: Age ≧18 years; RA (defined by American College of Rheumatology criteria) for ≧3 months; active, moderate to severe RA (Disease Activity Score (DAS28)≧3.2); unsatisfactory response or intolerance to at least one prior DMARD, including biologics. Efficacy assessments were performed at weeks 0 (baseline), 2, 6, and 12. The key outcomes measured were: change in DAS28; EULAR responses; ACR20, ACR50, ACR70 responses; changes in Tender Joint Count (TJC) and Swollen Joint Count (SJC); and change in Health Assessment Questionnaire (HAQ).

[3] = prior biologic: ETA + INF (n=78)
[4] = Week 12, concomitant LEF only (n=557)
[5] = Week 12, concomitant MTX + LEF (n=123)
[6] = Week 12, concomitant MTX only (n=1561)
[7] = Week 12, concomitant QC/HQC (n=85)
[8] = Week 12, concomitant SSZ only (n=89)
[9] = Wk 12, concomitant MTX Im 15 mg (N=76), no other DMARD
[10] = Wk 12, concomitant MTX Iv 15 mg (N=23), no other DMARD
[11] = Wk 12, concomitant MTX Sc 15 mg (N=37), no other DMARD
[12] = Wk 12, concomitant MTX oral 15 mg (N=405), no other DMARD
[13] = Wk 12, concomitant MTX oral ≦7.5 (N=127), no other DMARD
[14] = Wk 12, concomitant MTX oral ≧20 mg (N=216), no other DMARD
[15] = week 12, prior biologic: ETA + INF

With “adalimumab: human anti-TNF mAb (HUMIRA, Abbott Laboratories), described in U.S. Pat. No. 6,090,382 as D2E7” the “withdrawn, reason AE” value [1] was 11%, the “Change in SJC, mean change from baseline” value ([2]; all pts in Study A (n=4241)) was −6 and the “Change in TJC, mean change from baseline” value ([2]; all pts in Study A (n=4241)) was −8. For the same substance, the “SJC = 0” value ([2]; all pts in Study A (n=4241)) was 24%, the “TJC = 0” value ([2]; all pts in Study A (n=4241)) was 21% and the “Change in SJC, mean change from baseline” value ([2]; prior biologic: Any (n=688)) was −6. For the same substance, the “Change in TJC, mean change from baseline” value ([2]; prior biologic: Any (n=688)) was −8, the “SJC = 0” value ([2]; prior biologic: Any (n=688)) was 18% and the “TJC = 0” value ([2]; prior biologic: Any (n=688)) was 16%. For the same substance, the “Change in SJC, mean change from baseline” value ([2]; prior biologic: ETA (n=114)) was −7, the “Change in TJC, mean change from baseline” value ([2]; prior biologic: ETA (n=114)) was −8 and the “SJC = 0” value ([2]; prior biologic: ETA (n=114)) was 21%. For the same substance, the “TJC = 0” value ([2]; prior biologic: ETA (n=114)) was 16%, the “Change in SJC, mean change from baseline” value [2, 3] was −5 and the “Change in TJC, mean change from baseline” value [2, 3] was −7. The “SJC = 0” value [2, 3] was 7%, the “TJC = 0” value [2, 3] was 10% and the “Change in SJC, mean change from baseline” value ([2]; prior biologic: INF (n=358)) was −6. For the same substance, the “Change in TJC, mean change from baseline” value ([2]; prior biologic: INF (n=358)) was −8, the “SJC = 0” value ([2]; prior biologic: INF (n=358)) was 22% and the “TJC = 0” value ([2]; prior biologic: INF (n=358)) was 17%. For the same substance, the “Change in SJC, mean change from baseline” value ([2]; prior biologic: None (n=3553)) was −7, the “Change in TJC, mean change from baseline” value ([2]; prior biologic: None (n=3553)) was −8 and the “SJC = 0” value ([2]; prior biologic: None (n=3553)) was 25%. For the same substance, the “TJC = 0” value ([2]; prior biologic: None (n=3553)) was 22%, the “Change in SJC (0-28), mean change from baseline” value [2, 4] was −6 and the “Change in TJC (0-28), mean change from baseline” value [2, 4] was −8. For the same substance, the “Change in SJC (0-28), mean change from baseline” value [2, 5] was −8, the “Change in TJC (0-28), mean change from baseline” value [2, 5] was −10 and the “Change in SJC (0-28), mean change from baseline” value ([2]; Week 12, concomitant MTX + SSZ) was −7. For the same substance, the “Change in TJC (0-28), mean change from baseline” value ([2]; Week 12, concomitant MTX + SSZ) was −8, the “Change in SJC (0-28), mean change from baseline” value [2, 6] was −7 and the “Change in TJC (0-28), mean change from baseline” value [2, 6] was −8. The “Change in SJC (0-28), mean change from baseline” value [2, 7] was −7, the “Change in TJC (0-28), mean change from baseline” value [2, 7] was −9 and the “Change in SJC (0-28), mean change from baseline” value [2, 8] was −6. For the same substance, the “Change in TJC (0-28), mean change from baseline” value [2, 8] was −7, the “Change in SJC (0-28), mean change from baseline” value [2, 9] was −6 and the “Change in TJC (0-28), mean change from baseline” value [2, 9] was −8. The “Change in SJC (0-28), mean change from baseline” value [2, 10] was −7, the “Change in TJC (0-28), mean change from baseline” value [2, 10] was −11 and the “Change in SJC (0-28), mean change from baseline” value [2, 11] was −7. The “Change in TJC (0-28), mean change from baseline” value [2, 11] was −10, the “Change in SJC (0-28), mean change from baseline” value [2, 12] was −6 and the “Change in TJC (0-28), mean change from baseline” value [2, 12] was −8. The “Change in SJC (0-28), mean change from baseline” value [2, 13] was −7, the “Change in TJC (0-28), mean change from baseline” value [2, 13] was −8 and the “Change in SJC (0-28), mean change from baseline” value [2, 14] was −7. For the same substance, the “Change in TJC (0-28), mean change from baseline” value [2, 14] was −9, the “patients achieving SJC=0” value ([2]; week 12) was 25% and the “patients achieving TJC=0” value ([2]; week 12) was 23%. The “SJC (0-28) mean change from baseline” value ([2]; week 12, 1 prior biologic) was −6.4, the “TJC (0-28) mean change from baseline” value ([2]; week 12, 1 prior biologic) was −8.0 and the “SJC (0-28) mean change from baseline” value ([2]; week 12, 2 prior biologics) was −6.9. The “TJC (0-28) mean change from baseline” value ([2]; week 12, 2 prior biologics) was −8.1, the “SJC (0-28) mean change from baseline” value ([2]; week 12, 3 prior biologics) was −6.6 and the “TJC (0-28) mean change from baseline” value ([2]; week 12, 3 prior biologics) was −11.3. For the same substance, the “reduction in SJC28” value ([2]; week 12, median) was ~70%, the “reduction in TJC28” value ([2]; week 12, median) was ~77% and the “SJC (0-28) mean change from baseline” value ([2]; week 12, no prior biologic) was −6.4. For the same substance, the “TJC (0-28) mean change from baseline” value ([2]; week 12, no prior biologic) was −8.1, the “SJC (0-28) mean change from baseline” value ([2]; week 12, prior etanercept only) was −6.6 and the “TJC (0-28) mean change from baseline” value ([2]; week 12, prior etanercept only) was −8.4. The “SJC (0-28) mean change from baseline” value ([2]; week 12, prior infliximab only) was −6.8, the “TJC (0-28) mean change from baseline” value ([2]; week 12, prior infliximab only) was −7.8 and the “Median TJC reduction” value ([2]; week 12, prior biologic: Any) was −8. The “Mediant SJC reduction” value ([2]; week 12, prior biologic: Any) was −6, the “Median TJC reduction” value ([2]; week 12, prior biologic: ETA) was −8 and the “Mediant SJC reduction” value ([2]; week 12, prior biologic: ETA) was −7. The “Median TJC reduction” value [2, 15] was −7, the “Mediant SJC reduction” value [2, 15] was −5 and the “Median TJC reduction” value ([2]; week 12, prior biologic: INF) was −8. The “Mediant SJC reduction” value ([2]; week 12, prior biologic: INF) was −6, the “Median TJC reduction” value ([2]; week 12, prior biologic: None) was −8 and the “Mediant SJC reduction” value ([2]; week 12, prior biologic: None) was −7.
